One block for each compound: values may come before it. Active and inactive are the calls of the source. The calls are words filed in the database; no cut-off is given here.
Columns and labels:
[1] = target: T1, Histone acetyltransferase p300 (Homo sapiens, UniProt Q09472); test: Inhibition of EP300 bromodomain (unknown origin) incubated for 20 mins by AlphaLISA method
MCF7 = test: Antiproliferative activity against human MCF7 cells incubated for 5 days by CCK-8 method; assay type: functional, cell-based; conditions: MCF7, 120 h
OPM-2 [2] = test: Antiproliferative activity against human OPM-2 cells incubated for 5 days by CCK-8 method; assay type: functional, cell-based; conditions: OPM-2, 120 h
CWR22R = test: Antiproliferative activity against human 22Rv1 cells incubated for 5 days by CCK-8 method; assay type: functional, cell-based; conditions: 22Rv1, 120 h
[3] = target: T1, Histone acetyltransferase p300; test: Binding affinity to recombinant EP300 bromodomain (unknown origin) assessed as change in melting temperature by differential scanning fluorimetry method
SCC-9 = test: Antiproliferative activity against human SCC-9 cells incubated for 5 days by CCK-8 method; assay type: functional, cell-based; conditions: SCC-9, 120 h
OPM-2 [4] = test: Induction of cell cycle arrest in human OPM-2 cells assessed as accumulation of cells at G1/G0 phase at 5 uM incubated for 48 hrs by PI staining based flow cytometry analysis (reference value: 34.25 %); assay type: functional
[5] = target: T2, CREB-binding protein/Histone acetyltransferase p300 (Homo sapiens) (UniProt Q09472+Q92793); test: Inhibition of EP300/CBP bromodomain in human SCC-9 cells assessed as suppression of c-myc expression at 0.8 to 5 uM incubated for 3 days by Western blot analysis; assay type: cell-based; conditions: dose 0.8-5 µM, time 3.0 day
OPM-2 [6] = test: Induction of apoptosis in human OPM-2 cells assessed as apoptotic cells at 3 uM incubated for 72 hrs by annexin V-FITC/PI staining based flow cytometry analysis; assay type: functional
[7] = target: T2, CREB-binding protein/Histone acetyltransferase p300 (Homo sapiens); test: Inhibition of EP300/CBP bromodomain in human 22Rv1 cells assessed as suppression of c-myc expression at 0.8 to 5 uM incubated for 3 days by Western blot analysis; assay type: cell-based; conditions: dose 0.8-5 µM, time 3.0 day
[8] = target: T2, CREB-binding protein/Histone acetyltransferase p300 (Homo sapiens); test: Inhibition of EP300/CBP bromodomain in human OPM-2 cells assessed as suppression of c-myc expression at <= 1 uM incubated for 3 days by Western blot analysis; assay type: cell-based; conditions: time 3.0 day
[9] = target: T2, CREB-binding protein/Histone acetyltransferase p300 (Homo sapiens); test: Inhibition of EP300/CBP bromodomain in human OPM-2 cells assessed as suppression of c-myc expression incubated for 3 days by Western blot analysis; assay type: cell-based; conditions: dose 0.8-5 µM, time 3.0 day, DDE = dose-dependent effect

T1 sequence (Q09472 whole entry): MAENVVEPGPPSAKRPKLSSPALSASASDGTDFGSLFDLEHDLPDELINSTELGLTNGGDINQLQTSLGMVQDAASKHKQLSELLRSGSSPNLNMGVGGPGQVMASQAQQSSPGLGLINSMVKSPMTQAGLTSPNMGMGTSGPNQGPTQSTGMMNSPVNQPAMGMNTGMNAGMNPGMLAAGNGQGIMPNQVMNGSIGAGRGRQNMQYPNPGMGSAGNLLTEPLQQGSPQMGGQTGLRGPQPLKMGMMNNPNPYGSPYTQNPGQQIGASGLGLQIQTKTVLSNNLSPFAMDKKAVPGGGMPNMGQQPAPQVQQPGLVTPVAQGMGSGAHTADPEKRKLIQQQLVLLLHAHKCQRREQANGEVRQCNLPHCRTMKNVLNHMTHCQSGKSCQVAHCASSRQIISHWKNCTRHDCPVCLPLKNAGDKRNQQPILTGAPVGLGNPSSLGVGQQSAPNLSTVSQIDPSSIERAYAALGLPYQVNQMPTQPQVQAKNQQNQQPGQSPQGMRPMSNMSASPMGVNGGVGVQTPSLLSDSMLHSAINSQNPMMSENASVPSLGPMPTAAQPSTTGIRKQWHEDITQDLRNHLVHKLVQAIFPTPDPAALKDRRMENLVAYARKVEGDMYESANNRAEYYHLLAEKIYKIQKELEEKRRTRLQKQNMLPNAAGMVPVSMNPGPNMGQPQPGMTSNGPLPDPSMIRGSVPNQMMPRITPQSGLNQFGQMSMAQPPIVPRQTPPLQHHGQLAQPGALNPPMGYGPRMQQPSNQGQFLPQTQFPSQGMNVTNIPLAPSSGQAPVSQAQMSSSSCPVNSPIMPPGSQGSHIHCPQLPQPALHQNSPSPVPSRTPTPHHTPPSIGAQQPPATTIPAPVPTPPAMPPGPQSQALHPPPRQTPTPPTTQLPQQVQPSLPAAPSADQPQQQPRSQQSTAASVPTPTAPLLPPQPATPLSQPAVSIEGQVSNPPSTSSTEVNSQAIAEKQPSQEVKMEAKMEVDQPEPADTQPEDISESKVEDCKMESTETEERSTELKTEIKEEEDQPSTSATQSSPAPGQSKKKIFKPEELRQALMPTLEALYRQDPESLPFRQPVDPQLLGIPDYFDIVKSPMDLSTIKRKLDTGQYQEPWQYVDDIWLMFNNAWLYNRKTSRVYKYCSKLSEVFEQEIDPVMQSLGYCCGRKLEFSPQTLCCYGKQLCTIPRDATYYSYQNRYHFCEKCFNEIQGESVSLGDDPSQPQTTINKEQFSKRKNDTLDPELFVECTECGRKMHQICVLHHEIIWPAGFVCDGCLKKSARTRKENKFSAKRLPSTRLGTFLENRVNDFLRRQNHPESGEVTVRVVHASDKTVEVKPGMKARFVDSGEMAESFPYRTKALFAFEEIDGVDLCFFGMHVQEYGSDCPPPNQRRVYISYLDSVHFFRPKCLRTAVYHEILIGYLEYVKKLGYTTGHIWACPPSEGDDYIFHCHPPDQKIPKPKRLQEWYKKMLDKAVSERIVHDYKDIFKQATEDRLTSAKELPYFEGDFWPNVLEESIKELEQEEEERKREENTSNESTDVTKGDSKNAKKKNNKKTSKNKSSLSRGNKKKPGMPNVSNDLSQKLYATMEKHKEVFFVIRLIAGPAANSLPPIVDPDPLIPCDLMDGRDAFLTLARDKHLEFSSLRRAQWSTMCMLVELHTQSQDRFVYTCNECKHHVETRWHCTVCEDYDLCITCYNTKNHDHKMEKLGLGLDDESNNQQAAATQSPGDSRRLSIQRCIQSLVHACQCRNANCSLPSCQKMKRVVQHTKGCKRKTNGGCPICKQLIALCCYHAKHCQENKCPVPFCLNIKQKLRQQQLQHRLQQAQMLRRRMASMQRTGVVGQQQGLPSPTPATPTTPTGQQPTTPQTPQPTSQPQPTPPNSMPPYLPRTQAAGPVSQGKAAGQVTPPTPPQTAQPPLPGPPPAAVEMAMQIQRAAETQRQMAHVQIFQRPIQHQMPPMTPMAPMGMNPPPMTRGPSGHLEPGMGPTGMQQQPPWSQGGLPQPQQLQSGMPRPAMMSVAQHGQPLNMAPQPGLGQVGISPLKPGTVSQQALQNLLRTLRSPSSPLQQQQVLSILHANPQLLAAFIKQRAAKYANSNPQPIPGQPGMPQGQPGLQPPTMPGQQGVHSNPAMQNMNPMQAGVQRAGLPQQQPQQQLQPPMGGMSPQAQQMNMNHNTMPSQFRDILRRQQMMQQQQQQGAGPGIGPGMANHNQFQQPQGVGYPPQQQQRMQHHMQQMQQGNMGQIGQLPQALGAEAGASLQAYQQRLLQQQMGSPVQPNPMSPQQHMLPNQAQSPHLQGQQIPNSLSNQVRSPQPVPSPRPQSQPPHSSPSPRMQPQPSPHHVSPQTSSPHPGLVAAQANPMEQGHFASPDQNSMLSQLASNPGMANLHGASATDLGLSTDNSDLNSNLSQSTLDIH
T2 sequence (Q09472 whole entry, looked up): as the sequence (Q09472 whole entry) above
T2 sequence (Q92793 whole entry, looked up): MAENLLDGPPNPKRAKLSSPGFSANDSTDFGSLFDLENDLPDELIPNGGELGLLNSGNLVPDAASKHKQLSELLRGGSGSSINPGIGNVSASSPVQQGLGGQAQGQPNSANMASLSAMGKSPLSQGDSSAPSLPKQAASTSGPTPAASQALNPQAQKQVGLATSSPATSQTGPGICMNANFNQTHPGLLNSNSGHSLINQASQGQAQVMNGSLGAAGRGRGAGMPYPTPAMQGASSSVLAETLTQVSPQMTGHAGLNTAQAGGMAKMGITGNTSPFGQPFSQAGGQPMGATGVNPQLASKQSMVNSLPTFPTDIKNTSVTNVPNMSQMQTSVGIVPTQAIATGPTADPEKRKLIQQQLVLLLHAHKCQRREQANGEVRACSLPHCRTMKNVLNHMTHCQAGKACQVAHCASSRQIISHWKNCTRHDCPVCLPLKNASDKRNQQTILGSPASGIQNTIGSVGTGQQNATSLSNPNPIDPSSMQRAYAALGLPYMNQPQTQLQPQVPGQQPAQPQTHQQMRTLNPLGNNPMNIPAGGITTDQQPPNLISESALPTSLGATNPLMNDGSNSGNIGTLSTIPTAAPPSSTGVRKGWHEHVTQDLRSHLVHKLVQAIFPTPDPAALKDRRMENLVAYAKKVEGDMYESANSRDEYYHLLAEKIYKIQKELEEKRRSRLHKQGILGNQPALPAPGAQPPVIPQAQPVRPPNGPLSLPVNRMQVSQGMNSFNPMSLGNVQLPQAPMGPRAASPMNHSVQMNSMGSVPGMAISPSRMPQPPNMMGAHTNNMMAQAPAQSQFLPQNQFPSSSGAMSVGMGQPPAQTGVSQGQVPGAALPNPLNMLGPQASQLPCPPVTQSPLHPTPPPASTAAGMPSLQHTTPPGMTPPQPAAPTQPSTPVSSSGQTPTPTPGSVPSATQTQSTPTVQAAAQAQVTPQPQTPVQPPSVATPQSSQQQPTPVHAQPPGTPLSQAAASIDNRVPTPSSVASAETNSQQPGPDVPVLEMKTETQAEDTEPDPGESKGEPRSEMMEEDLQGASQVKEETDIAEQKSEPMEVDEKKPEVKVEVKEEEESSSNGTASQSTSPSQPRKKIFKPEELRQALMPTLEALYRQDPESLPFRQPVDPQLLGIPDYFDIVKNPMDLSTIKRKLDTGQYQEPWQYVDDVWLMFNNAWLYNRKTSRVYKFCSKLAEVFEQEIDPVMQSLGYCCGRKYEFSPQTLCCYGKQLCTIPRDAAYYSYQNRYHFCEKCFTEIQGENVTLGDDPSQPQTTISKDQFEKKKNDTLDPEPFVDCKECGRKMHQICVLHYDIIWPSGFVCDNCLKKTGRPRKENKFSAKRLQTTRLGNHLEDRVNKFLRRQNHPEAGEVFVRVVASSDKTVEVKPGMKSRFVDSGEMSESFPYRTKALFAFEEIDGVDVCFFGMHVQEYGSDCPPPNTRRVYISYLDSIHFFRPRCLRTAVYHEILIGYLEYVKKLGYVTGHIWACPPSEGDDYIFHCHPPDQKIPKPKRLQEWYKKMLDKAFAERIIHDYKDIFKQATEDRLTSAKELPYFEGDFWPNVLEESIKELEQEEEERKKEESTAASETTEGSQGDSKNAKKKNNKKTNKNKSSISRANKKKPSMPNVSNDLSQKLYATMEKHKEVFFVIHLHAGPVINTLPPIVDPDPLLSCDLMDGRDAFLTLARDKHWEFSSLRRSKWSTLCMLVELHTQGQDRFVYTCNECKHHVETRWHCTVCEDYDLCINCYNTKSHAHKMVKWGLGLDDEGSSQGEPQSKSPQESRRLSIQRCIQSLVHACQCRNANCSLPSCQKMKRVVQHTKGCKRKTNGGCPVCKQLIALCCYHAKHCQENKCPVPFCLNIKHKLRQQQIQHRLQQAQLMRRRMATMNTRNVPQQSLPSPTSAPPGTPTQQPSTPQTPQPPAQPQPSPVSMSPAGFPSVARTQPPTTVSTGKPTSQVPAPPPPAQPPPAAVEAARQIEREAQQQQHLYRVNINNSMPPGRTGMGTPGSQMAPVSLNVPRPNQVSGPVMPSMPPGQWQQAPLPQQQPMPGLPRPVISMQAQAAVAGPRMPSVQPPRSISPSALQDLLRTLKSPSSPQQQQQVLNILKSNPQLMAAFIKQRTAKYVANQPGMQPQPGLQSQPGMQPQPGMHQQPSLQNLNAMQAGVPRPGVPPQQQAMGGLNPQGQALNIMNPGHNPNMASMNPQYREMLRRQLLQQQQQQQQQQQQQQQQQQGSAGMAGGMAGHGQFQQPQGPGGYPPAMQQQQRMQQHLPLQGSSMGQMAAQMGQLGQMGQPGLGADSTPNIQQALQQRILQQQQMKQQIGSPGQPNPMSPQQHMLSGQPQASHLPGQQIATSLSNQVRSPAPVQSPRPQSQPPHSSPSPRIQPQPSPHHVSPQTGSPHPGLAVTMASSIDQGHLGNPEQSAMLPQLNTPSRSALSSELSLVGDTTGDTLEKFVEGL

Compound: COc1ccc(CCc2nc3cc(-c4c(C)noc4C)ccc3n2C[C@H](C)N2CCOCC2)cc1Cl
IC50 (MCF7): 2390 nM
IC50 (OPM-2 [2]): 2640 nM
IC50 (CWR22R): > 10000 nM
ΔTm [3]: 4.5 °C
IC50 (SCC-9): 6420 nM

Compound: COc1ccc(CCc2nc3cc(C4(C)COC4)ccc3n2C[C@H](C)N2CCOCC2)cc1Cl
ΔTm [3]: 2.21 °C

Compound: COc1ccc(CCc2nc3cc(-c4c(C)noc4C)ccc3n2C2CCC(F)(F)CC2)cc1Cl
IC50 [1]: 83 nM

Compound: COc1ccc(CCc2nc3cc(-c4cnn(C)c4)ccc3n2C[C@H](C)N2CCOCC2)cc1Cl
ΔTm [3]: 2.95 °C

Compound: COc1ccc(CCc2nc3cc(-c4c(C)noc4C)ccc3n2[C@H]2C[C@H](O)C2)cc1Cl
IC50 [1]: 155 nM

Compound: COc1ccc(CCc2nc3cc(-c4c(C)noc4C)ccc3n2C2CCN(C(C)=O)CC2)cc1Cl
IC50 [1]: 94 nM

Compound: COc1ccc(CCc2nc3cc(-c4c(C)noc4C)ccc3n2[C@H]2CC[C@H](C(F)(F)F)CC2)cc1Cl
IC50 [1]: 894 nM

Compound: COc1ccc(CCc2nc3cc(CC#N)ccc3n2C[C@H](C)N2CCOCC2)cc1Cl
ΔTm [3]: 1.44 °C

Compound: COc1ccc(CCc2nc3cc(C(C)=O)ccc3n2C[C@H](C)N2CCOCC2)cc1Cl
ΔTm [3]: 4.1 °C

Compound: COc1ccc(CCc2nc3cc(-c4c(C)noc4C)ccc3n2C2CCN(S(C)(=O)=O)CC2)cc1Cl
IC50 [1]: 148 nM

Compound: CNC(=O)c1ccc2c(c1)nc(CCc1ccc(OC)c(Cl)c1)n2C[C@H](C)N1CCOCC1
ΔTm [3]: 2.1 °C

Compound: CNC(=O)Nc1ccc2c(c1)nc(CCc1ccc(OC)c(Cl)c1)n2C[C@H](C)N1CCOCC1
ΔTm [3]: 3.53 °C

Compound: COc1ccc(CCc2nc3cc(-c4c(C)noc4C)ccc3n2[C@H]2CC[C@H](OC)CC2)cc1Cl
IC50 [1]: 97 nM
IC50 (MCF7): 5650 nM
Activity [9]: Dde
IC50 (OPM-2 [2]): 2290 nM
IC50 (CWR22R): > 10000 nM
IC50 (SCC-9): 2550 nM

Further lines, with some results ahead:

IC50 [1]: 112 nM
Compound: COc1ccc(CCc2nc3cc(-c4c(C)noc4C)ccc3n2C2CC(C)(C)OC(C)(C)C2)cc1Cl

IC50 [1]: 49 nM
IC50 (MCF7): 960 nM
Activity [5]: Active
Activity [7]: Active
Activity [8]: Active
Compound: COc1ccc(N2C(=O)C[C@H]2c2nc3cc(-c4c(C)noc4C)ccc3n2[C@H]2CC[C@H](OC)CC2)cc1Cl
IC50 (OPM-2 [2]): 1090 nM
Activity (OPM-2 [4]): 90%
IC50 (CWR22R): 3740 nM
Activity (OPM-2 [6]): 38.27%
IC50 (SCC-9): 1850 nM

ΔTm [3]: 1.07 °C
Compound: COc1ccc(CCc2nc3cc(S(C)(=O)=O)ccc3n2C[C@H](C)N2CCOCC2)cc1Cl

ΔTm [3]: 4.34 °C
Compound: COc1ccc(CCc2nc3cc(-c4cnn(C)n4)ccc3n2C[C@H](C)N2CCOCC2)cc1Cl

IC50 [1]: 48 nM
Compound: COc1ccc2c(Cc3nc4cc(-c5c(C)noc5C)ccc4n3[C@H]3CC[C@H](O)CC3)cc(=O)oc2c1

IC50 [1]: 81 nM
IC50 (MCF7): 1990 nM
Activity [9]: Dde
Compound: COc1ccc(N2C(=O)C[C@@H]2c2nc3cc(-c4c(C)noc4C)ccc3n2[C@H]2CC[C@H](OC)CC2)cc1Cl
IC50 (OPM-2 [2]): 1540 nM
IC50 (CWR22R): 3680 nM
IC50 (SCC-9): 3170 nM

ΔTm [3]: 2.97 °C
Compound: COc1ccc(CCc2nc3cc(NC(C)=O)ccc3n2C[C@H](C)N2CCOCC2)cc1Cl

ΔTm [3]: 2.51 °C
Compound: COc1ccc(CCc2nc3cc(NS(C)(=O)=O)ccc3n2C[C@H](C)N2CCOCC2)cc1Cl

IC50 [1]: 48 nM
IC50 (MCF7): 2820 nM
Activity [8]: Active
Compound: COc1ccc(CCc2nc3cc(-c4c(C)noc4C)ccc3n2[C@H]2CC[C@H](O)CC2)cc1Cl
IC50 (OPM-2 [2]): 1390 nM
Activity (OPM-2 [4]): 90%
IC50 (CWR22R): 6830 nM
Activity (OPM-2 [6]): 28.49%
IC50 (SCC-9): 3680 nM

IC50 [1]: 263 nM
Compound: Cc1noc(C)c1-c1ccc2c(c1)nc(C1CC1c1ccccc1)n2[C@H]1CC[C@H](O)CC1 (stereo partly drawn)

— ChEMBL document CHEMBL5120873, “Discovery of novel benzimidazole derivatives as potent p300 bromodomain inhibitors with anti-proliferative activity in multiple cancer cells” (Bioorg Med Chem, 2022)
